Values of other authors as cited in patent US20090317464A1, “METHODS AND COMPOSITIONS FOR PRODUCING ANTI-ANDROGENIC EFFECTS” (PANACEA BIOTEC LTD., priority 2006, published 2009).

- steady state concentration (Css) versus dose (daily administration to patients, above 300 mg, studied at 450 and 600 mg dose): no further increase in Css is observed
- half life (in vivo): approximately 5.8 days
- time to peak plasma concentration (in vivo): about 31 hours
SMILES: CC(O)(CS(=O)(=O)c1ccc(F)cc1)C(=O)Nc1ccc(C#N)c(C(F)(F)F)c1 (stereo not drawn) [Bicalutamide, 4-cyano-3-trifluoromethyl-N-(3-p-fluorophenylsulphony 1-2-hydroxy-2-methylpropionyl) aniline]
